The values below come from patent publication US20090011951A1, “Method of Gene Screening With Yeast Having Ergosterol Synthase Undergoing Inducible Expression” (priority 2004, published 2009).

Structures are written as SMILES.

One experiment relates to yeast. Particulars: known action; cited from earlier work.
In experiment [1] the test system is yeast (Saccharomyces cerevisiae) that inducibly expresses ERG6. Kind of experiment: Cycloheximide sensitivity of the strain that inducibly expresses ERG6. Type of experiment: cell-based. Particulars: 30° C., 2 days, various concentrations. The procedure: The following experiments were performed to confirm a difference in drug resistance of yeast that inducibly expresses ergosterol depending on presence or absence of induction.
It was confirmed that the drug sensitivity was increased by turning off the expression of ergosterol.

For the molecule `CN(Cc1cnc2nc(N)nc(N)c2n1)c1ccc(C(=O)N[C@@H](CCC(=O)O)C(=O)O)cc1` [Methotrexate], the “growth inhibitory action against yeast” value in the experiment with yeast is “has a growth inhibitory action against yeast”.
Consider `C[C@@H]1C[C@@H]([C@H](O)CC2CC(=O)NC(=O)C2)C(=O)[C@@H](C)C1` [cycloheximide], for which the cycloheximide sensitivity result in experiment [1] (galactose medium (ERG6 induced)) is given as “equal to that of a pdr1 pdr3-disrupted stain (ERG6 strain)”; in experiment [1] (glucose medium (ERG6 repressed)), “equal to that of a pdr1 pdr3 erg6-disrupted strain”.
